Measured values reported in patent publication US11384055B2 (BIOMARIN PHARMACEUTICAL INC., priority 2017, dated 2022).

target: T1, Human GO (Homo sapiens, UniProt Q9UJM8); experiment: GO enzymatic assay (coupled fluorescence/HRP assay, glycolate substrate); assay type: biochemical; conditions: not given
T1 construct: purchased Novus Biologicals NBP1-72412
T1 sequence (Q9UJM8 1-370): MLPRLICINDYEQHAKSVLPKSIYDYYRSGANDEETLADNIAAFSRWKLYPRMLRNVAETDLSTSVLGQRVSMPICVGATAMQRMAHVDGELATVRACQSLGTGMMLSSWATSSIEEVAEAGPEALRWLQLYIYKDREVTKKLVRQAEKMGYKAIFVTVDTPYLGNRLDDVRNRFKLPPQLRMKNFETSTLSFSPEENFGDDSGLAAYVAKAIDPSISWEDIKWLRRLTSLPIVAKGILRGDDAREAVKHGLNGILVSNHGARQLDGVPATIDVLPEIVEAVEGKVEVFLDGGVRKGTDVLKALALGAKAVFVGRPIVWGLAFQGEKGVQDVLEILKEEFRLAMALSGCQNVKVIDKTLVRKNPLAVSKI
Description: Assay 1: GO Enzymatic Assay
GO was incubated with its substrate, glycolate, in 50 mM potassium phosphate buffer, pH 7. […] The enzyme was optimized and the kinetics was determined.
Compound inhibition was determined by adding various concentrations of inhibitors in the GO enzyme assay. The IC50 value for each measured compound was generated from sigmoidal dose-response (variable slope) curves with GraphPad Prism software (GraphPad Software, Inc., San Diego, Calif.) using the percent inhibition of GO activity relative to DMSO control.

Row | IC50 [nM] | SMILES
1 | < 100 | O=C(O)c1[nH]nnc1Sc1ccc(Cl)c(Cl)c1 [Compound 41, 4-((3,4-dichlorophenyl)thio)-1H-1,2,3-triazole-5-carboxylic acid]

same assay, conditions: Table 1; read-out: Range (range of IC50 values calculated from the enzymatic assays)

Row | IC50 [nM] | SMILES
2 | 100 to 1000 | Cn1c(Sc2nn[nH]c2C(=O)O)cnc1-c1ccc(Cl)c(Cl)c1 [Compound 35, 4-((2-(3,4-dichlorophenyl)-1-methyl-1H-imidazol-5-yl)thio)-1H-1,2,3-triazole-5-carboxylic acid 2,2,2-trifluoroacetate]
3 | < 100 | O=C(O)c1[nH]nnc1Sc1csc(-c2ccc(Cl)c(Cl)c2)c1 [Compound 36, 4-((5-(3,4-dichlorophenyl)thiophen-3-yl)thio)-1H-1,2,3-triazole-5-carboxylic acid]
4 | > 10000 | COC(=O)c1[nH]nnc1Sc1csc(-c2ccc(OC(F)(F)F)c(Cl)c2)n1 [Compound 40, methyl 4-((2-(3-chloro-4-(trifluoromethoxy)phenyl)thiazol-4-yl)thio)-1H-1,2,3-triazole-5-carboxylate]
5 | < 100 | O=C(O)c1[nH]nnc1Sc1cccc(-c2ccc(OC(F)(F)F)cc2)c1 [Compound 42, 4-((4′-(trifluoromethoxy)-[1,1′-biphenyl]-3-yl)thio)-1H-1,2,3-triazole-5-carboxylic acid]
6 | < 100 | O=C(O)c1[nH]nnc1Sc1nc(-c2ccc(OC(F)(F)F)c(Cl)c2)cs1 [Compound 43, 4-((4-(3-chloro-4-(trifluoromethoxy)phenyl)thiazol-2-yl)thio)-1H-1,2,3-triazole-5-carboxylic acid]
7 | > 10000 | COC(=O)c1[nH]nnc1Sc1nc(-c2ccc(OC(F)(F)F)c(Cl)c2)cs1 [Compound 44, methyl 4-((4-(3-chloro-4-(trifluoromethoxy)phenyl)thiazol-2-yl)thio)-1H-1,2,3-triazole-5-carboxylate]
8 | 1000 to 10000 | O=C(OC1COC1)c1[nH]nnc1Sc1ccc(-c2ccc(OC(F)(F)F)cc2)cc1 [Compound 45, oxetan-3-yl 4-((4′-(trifluoromethoxy)-[1,1′-biphenyl]-4-yl)thio)-1H-1,2,3-triazole-5-carboxylate]
9 | 100 to 1000 | O=C(O)c1[nH]nnc1Sc1ccc2cc(Cl)ccc2n1 [Compound 46, 4-((6-chloroquinolin-2-yl)thio)-1H-1,2,3-triazole-5-carboxylic acid]
10 | < 100 | O=C(O)c1[nH]nnc1Sc1ccc(-c2ccc(Cl)cc2)c(Cl)c1 [Compound 47, 4-((2,4′-dichloro-[1,1′-biphenyl]-4-yl)thio)-1H-1,2,3-triazole-5-carboxylic acid]
11 | < 100 | O=C(O)c1[nH]nnc1Sc1ccc(-c2ccc(Cl)cc2)cc1Cl [Compound 48, 4-((3,4′-dichloro-[1,1′-biphenyl]-4-yl)thio)-1H-1,2,3-triazole-5-carboxylic acid]
12 | < 100 | O=C(O)c1[nH]nnc1Sc1ccc2c(c1)CCCC2 [Compound 50, 4-((5,6,7,8-tetrahydronaphthalen-2-yl)thio)-1H-1,2,3-triazole-5-carboxylic acid]
13 | 100 to 1000 | CC(C)(C)C(=O)OCn1nnc(Sc2ccc(-c3ccc(OC(F)(F)F)cc3)cc2)c1C(=O)O [Compound 51, 1-((pivaloyloxy)methyl)-4-((4′-(trifluoromethoxy)-[1,1′-biphenyl]-4-yl)thio)-1H-1,2,3-triazole-5-carboxylic acid]
14 | 100 to 1000 | CC(C)C(=O)OCn1nnc(Sc2ccc(-c3ccc(OC(F)(F)F)cc3)cc2)c1C(=O)O [Compound 52, 1-((isobutyryloxy)methyl)-4-((4′-(trifluoromethoxy)-[1,1′-biphenyl]-4-yl)thio)-1H-1,2,3-triazole-5-carboxylic acid]
15 | < 100 | O=C(O)c1[nH]nnc1Sc1ccc2ncsc2c1 [Compound 53, 4-(benzo[d]thiazol-6-ylthio)-1H-1,2,3-triazole-5-carboxylic acid 2,2,2-trifluoroacetate]
16 | 100 to 1000 | CC(C)C(=O)OCOC(=O)c1[nH]nnc1Sc1ccc(-c2ccc(OC(F)(F)F)cc2)cc1 [Compound 55, (isobutyryloxy)methyl 4-((4′-(trifluoromethoxy)-[1,1′-biphenyl]-4-yl)thio)-1H-1,2,3-triazole-5-carboxylate]
17 | > 10000 | CCOC(=O)c1[nH]nnc1Nc1ccc(-c2ccc(Cl)cc2)cc1 [Compound 58-1, ethyl 4-((4′-chloro-[1,1′-biphenyl]-4-yl)amino)-1H-1,2,3-triazole-5-carboxylate]
18 | < 100 | O=C(O)c1[nH]nnc1Nc1ccc(-c2ccc(Cl)c(Cl)c2)cc1 [Compound 60, 4-((3′,4′-dichloro-[1,1′-biphenyl]-4-yl)amino)-1H-1,2,3-triazole-5-carboxylic acid]
19 | < 100 | O=C(O)c1[nH]nnc1Nc1ccc(-c2ccc(OC(F)(F)F)cc2)cc1 [Compound 62, 4-((4′-(trifluoromethoxy)-[1,1′-biphenyl]-4-yl)amino)-1H-1,2,3-triazole-5-carboxylic acid 2,2,2-trifluoroacetate]
20 | > 10000 | COC(=O)c1[nH]nnc1Nc1ccc(-c2ccc(OC(F)(F)F)cc2)cc1 [Compound 65, methyl 4-((4′-(trifluoromethoxy)-[1,1′-biphenyl]-4-yl)amino)-1H-1,2,3-triazole-5-carboxylate]
21 | 1000 to 10000 | O=C(O)CN(c1ccc(-c2ccc(Cl)cc2)cc1)c1nn[nH]c1C(=O)O [Compound 66, 4-((carboxymethyl)(4′-chloro-[1,1′-biphenyl]-4-yl)amino)-1H-1,2,3-triazole-5-carboxylic acid 2,2,2-trifluoroacetate]
22 | 100 to 1000 | O=C(O)c1[nH]nnc1NCc1cccc(-c2ccc(Cl)c(Cl)c2)c1 [Compound 67, 4-(((3′,4′-dichloro-[1,1′-biphenyl]-3-yl)methyl)amino)-1H-1,2,3-triazole-5-carboxylic acid]

Further lines, the molecule ahead of its results:

Row | SMILES | IC50 [nM]
23 | O=C(O)c1[nH]nnc1Sc1ccc(-c2ccc(OC(F)(F)F)c(Cl)c2)cc1 [Compound 32, 4-((3′-chloro-4′-(trifluoromethoxy)-[1,1′-biphenyl]-4-yl)thio)-1H-1,2,3-triazole-5-carboxylic acid] | < 100
24 | COC(=O)c1[nH]nnc1Sc1ccc(-c2ccc(OC(F)(F)F)cc2)cc1 [Compound 33, methyl 4-((4′-(trifluoromethoxy)-[1,1′-biphenyl]-4-yl)thio)-1H-1,2,3-triazole-5-carboxylate] | > 10000
25 | CCCCOc1ccc2sc(Sc3nn[nH]c3C(=O)O)nc2c1 [Compound 34, 4-((5-butoxybenzo[d]thiazol-2-yl)thio)-1H-1,2,3-triazole-5-carboxylic acid] | 100 to 1000
26 | CN(C)CCOC(=O)c1[nH]nnc1Sc1ccc(-c2ccc(OC(F)(F)F)cc2)cc1 [Compound 37, 2-(dimethylamino)ethyl 4-((4′-(trifluoromethoxy)-[1,1′-biphenyl]-4-yl)thio)-1H-1,2,3-triazole-5-carboxylate] | > 10000
27 | O=C(O)c1[nH]nnc1Sc1csc(-c2ccc(OC(F)(F)F)c(Cl)c2)n1 [Compound 39, 4-((2-(3-chloro-4-(trifluoromethoxy)phenyl)thiazol-4-yl)thio)-1H-1,2,3-triazole-5-carboxylic acid] | < 100
28 | O=C(O)c1[nH]nnc1Sc1ccc(F)c(F)c1 [Compound 49, 4-((3,4-difluorophenyl)thio)-1H-1,2,3-triazole-5-carboxylic acid] | < 100
29 | CC(C)(C)C(=O)OCOC(=O)c1[nH]nnc1Sc1ccc(-c2ccc(OC(F)(F)F)cc2)cc1 [Compound 54, (pivaloyloxy)methyl 4-((4′-(trifluoromethoxy)-[1,1′-biphenyl]-4-yl)thio)-1H-1,2,3-triazole-5-carboxylate] | 1000 to 10000
30 | O=C(O)c1[nH]nnc1Sc1ccc2cc(Cl)ccc2c1 [Compound 56, 4-((6-chloronaphthalen-2-yl)thio)-1H-1,2,3-triazole-5-carboxylic acid] | < 100
31 | O=C(O)c1[nH]nnc1SC1Cc2cc(Cl)c(Cl)cc2C1 [Compound 57, 4-((5,6-dichloro-2,3-dihydro-1H-inden-2-yl)thio)-1H-1,2,3-triazole-5-carboxylic 2,2,2-trifluoroacetate] | < 100
32 | O=C(O)c1[nH]nnc1Nc1ccc(-c2ccc(Cl)cc2)cc1 [Compound 58-2, 4-((4′-chloro-[1,1′-biphenyl]-4-yl)amino)-1H-1,2,3-triazole-5-carboxylic acid] | < 100
33 | O=C(O)c1[nH]nnc1Nc1nc(-c2ccc(Cl)c(Cl)c2)cs1 [Compound 59, 4-((4-(3,4-dichlorophenyl)thiazol-2-yl)amino)-1H-1,2,3-triazole-5-carboxylic acid] | < 100
34 | O=C(O)c1[nH]nnc1Nc1csc(-c2ccc(Cl)c(Cl)c2)n1 [Compound 61, ammonium 4-((2-(3,4-dichlorophenyl)thiazol-4-yl)amino)-1H-1,2,3-triazole-5-carboxylate] | < 100
35 | CN(c1csc(-c2ccc(Cl)c(Cl)c2)n1)c1nn[nH]c1C(=O)O [Compound 63, 4-((2-(3,4-dichlorophenyl)thiazol-4-yl)(methyl)amino)-1H-1,2,3-triazole-5-carboxylic acid] | 100 to 1000
36 | O=C(O)c1[nH]nnc1Nc1nc(-c2ccc(OC(F)(F)F)c(Cl)c2)cs1 [Compound 64, 4-((4-(3-chloro-4-(trifluoromethoxy)phenyl)thiazol-2-yl)amino)-1H-1,2,3-triazole-5-carboxylic acid] | < 100
